Read-outs that look alike come from different tables or passages of the source. Numbered stars: 1 amine (or outer) side, 2 acyl side, 3 side chain; on linkers, the order of the positions; unused ones are H or OH. Square brackets hold non-standard residues; d marks the D form. Peptide text beside a SMILES is read from it. NMeTrp(1-(4-Br-benzyl)) = CN[C@@H](Cc1cn(Cc2ccc(Br)cc2)c2ccccc12)C(=O)O; X17 = CN([C@@H](Cc1cn(-c2ccccc2)c2ccccc12)C(=O)[*:2])[*:1]; Butanoyl(2R-oxy,4-CN) = N#CCC[C@@H](O)C(=O)O; Nva(5,5,5-F3) = N[C@@H](CCC(F)(F)F)C(=O)O; Abu(4,4,4-F3) = N[C@@H](CC(F)(F)F)C(=O)O; NMeBta = CN[C@@H](Cc1csc2ccccc12)C(=O)O; tBuAla = CC(C)(C)C[C@H](N)C(=O)O; NMeL = CN[C@@H](CC(C)C)C(=O)O; NMeA = CN[C@@H](C)C(=O)O
Experiments:
Format in all cases: cell-based
HER3ss-Gluc = experiment: HER3ss assay
How it was run: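 HEK-293T T-REx cells were transiently transfected with HER3 signal sequence (plus four mature-domain residues) fused upstream of mature Gaussia luciferase. Cells were induced with doxycycline (1 μg/ml) and exposed to increasing compound concentrations for 24 h, then secreted luciferase in the conditioned medium was read by luminescence.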

[1] = test system: TNFα-FL/Gaussia Luciferase; experiment: Dox induced TNFα-FL-Gluc assay
How it was run: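 Stable Flp-In 293 T-REx line expressing full-length TNFα (aa 1-233) fused at its C-terminus to Gaussia luciferase under doxycycline-inducible control. Cells plated the day before, then given compound dilutions in DMSO/media containing doxycycline and incubated at 37 °C, 5% CO2.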

[2] = test system: NCI-H929 multiple myeloma cell line; experiment: H929 assay (cell viability, Celltiter-Glo); details: Homo sapiens, read-out: H929 EC50
How it was run: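 Cells plated in RPMI 1640 with 10% FBS and 2 mM glutamine, treated with compound dilutions in DMSO/media. Incubation 48 h at 37° C, 5% CO2. Viability from luciferase luminescence signal.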

[3] = test system: JJN3 plasma cell leukemia cell line; experiment: JJN-3 assay (Alamar blue); details: Homo sapiens, 72 h
Description: (§1) BT474 is a human breast tumor cell line. JJN3 is a human plasma cell leukemia cell line. […] Cells were seeded at 100 000 cells/mL. Aliquots of 5000 cells (50 μL) were added to each well in black, clear bottom 96-well plates. Compounds or control (50 uL of 1% DMSO in cell culture medium) were added to the cells to the indicated final concentrations and cells were incubated for 72 h (unless otherwise specified). After incubation was complete, Alamar blue (10 uL of a 1 mg/mL solution) was added to each well and plates were incubated for 5 h. Fluorescence was then measured (excitation 545 nm, emission 590 nm) and is reported as […] normalized to DMSO control.

[4] = test system: PD1-ss+10aa/Gaussia Luciferase; experiment: Dox induced PD1-ss-Gluc assay
How it was run: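 Stable Flp-In 293 T-REx line expressing doxycycline-inducible Gaussia luciferase fused to the PD1 signal sequence plus 10 amino acids. Cells plated the day before, then exposed to compound dilutions in DMSO/media containing doxycycline at 37 °C, 5% CO2.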

[5] = test system: BT474 breast tumor cell line; experiment: BT474 assay (Alamar blue); details: Homo sapiens, BT-474, 72 h
Description: as §1

[6] = test system: VCAMss+10aa/Gaussia Luciferase; experiment: VCAM-ss-Gluc assay (constitutively active or Dox induced); details: Flp-In 293 T-REx cells, 24 hours
Description: Assays Constitutively Active VCAM-ss-Gluc Assay
Transfected cells were selected for resistance to the selectable markers Hygromycin and Blasticidin to create a stable cell line that constitutively expressed the VCAMss+ 10aa/Gaussia Luciferase fusion protein. The day before assay, cells were trypsinized and plated in 384-well tissue culture plates. The next day, culture media was removed from the wells and replaced with fresh media. Compound dilutions in DMSO/media were added to the wells and incubated at 37° C., 5% CO2.
Dox Induced VCAM-ss-Gluc Assay
Transfected cells were selected for resistance to the selectable markers Hygromycin and Blasticidin to create a stable cell line that contained the VCAMss+10aa/Gaussia Luciferase cDNA insert whose expression was regulated under the T-REx™ system. The day before assay, cells were trypsinized and plated in 384-well tissue culture plates. The next day, compound dilutions in DMSO/media containing doxycycline were added to the wells and incubated at 37° C., 5% CO2.

[7] = test system: Prl-ss+10aa/Gaussia Luciferase; experiment: Prl-ss-Gluc assay (constitutively active or 24 hr Dox inducible)
How it was run: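 Stable Flp-In 293 T-REx lines express Prl signal sequence+10aa fused to Gaussia luciferase, either constitutively (pcDNA5/FRT) or under the T-REx promoter (pcDNA5/FRT/TO). Cells plated the day before; compounds in DMSO/media (with doxycycline for the inducible line, 24 h) incubated at 37 °C, 5% CO2.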

[8] = test system: U266B1 multiple myeloma cell line; experiment: U266 assay (cell viability, Celltiter-Glo); details: Homo sapiens, U-266; 48 hours, cell viability
Description: Cells were plated in 384-well tissue culture plates and treated with compound dilutions in DMSO/media. Plates were incubated at 37° C., 5% CO2 for 48 hours. After 48 hours, Celltiter-Glo@ (Promega) was added to each well and luciferase signal was quantified using Tecan Infinite M1000 Pro for cell viability determination.

[9] = HEK-293T T-rex cells, transient transfection, doxycycline, 24 h; read-out: HER3 ss IC50
[10] = Flp-In 293 T-REx cells, doxycycline, 24 hours; read-out: TNFa FL Gluc IC50
[11] = NCI-H929, 48 hours, cell viability
[12] = Flp-In 293 T-REx cells, doxycycline, 24 hours; read-out: PD1ss Gluc IC50
[13] = Flp-In 293 T-REx cells, 24 hours; read-out: Prl IC50

Compound	IC50 (HER3ss-Gluc; [9]) [nM]	IC50 [1, 10] [nM]	EC50 [2, 11] [nM]	EC50 [3] [nM]	IC50 [4, 12] [nM]	EC50 [5] [nM]	IC50 [6] [nM]	IC50 [7, 13] [nM]	IC50 (HER3ss-Gluc; read-out: HER3 ss IC50; HEK-293T T-rex cells, transient transfection, doxycycline, 24 h) [nM]	IC50 ([7]; read-out: Prl IC50; Flp-In 293 T-REx cells, 24 hours) [nM]	IC50 ([1]; read-out: TNFa FL Gluc IC50; Flp-In 293 T-REx cells, doxycycline, 24 hours) [nM]	EC50 ([2]; NCI-H929, 48 h) [nM]	IC50 ([4]; read-out: PD1ss Gluc IC50; Flp-In 293 T-REx cells, doxycycline, 24 hours) [nM]	EC50 [8] [nM]
CC(C)C[C@@H]1NC(=O)[C@H](CC(C)C)N(C)C(=O)[C@H](CC(F)(F)F)NC(=O)[C@@H](CCC#N)OC(=O)[C@H](C)N(C)C(=O)[C@H](CCC(F)(F)F)NC(=O)[C@H](Cc2csc3ccccc23)N(C)C1=O [C-49] (cyclo(L[NMeBta][Nva(5,5,5-F3)][NMeA][Butanoyl(2R-oxy,4-CN)][Abu(4,4,4-F3)][NMeL]))	17	550	3370	623	168	1800	22	–	–	–	–	–	–	–
CC(C)C[C@@H]1NC(=O)[C@H](CC(C)C)N(C)C(=O)[C@H](CC(F)(F)F)NC(=O)[C@@H](CCC#N)OC(=O)[C@H](C)N(C)C(=O)[C@H](CCC(F)(F)F)NC(=O)[C@H](Cc2cn(Cc3ccc(Br)cc3)c3ccccc23)N(C)C1=O [C-48] (cyclo(L[NMeTrp(1-(4-Br-benzyl))][Nva(5,5,5-F3)][NMeA][Butanoyl(2R-oxy,4-CN)][Abu(4,4,4-F3)][NMeL]))	–	133	1630	284	27	1240	36	1340	–	–	–	–	–	–
CC(C)C[C@@H]1NC(=O)[C@H](Cc2cn(Cc3ccc(Br)cc3)c3ccccc23)N(C)C(=O)[C@H](CC(C)C)NC(=O)[C@H](CC(C)C)N(C)C(=O)[C@H](CC(F)(F)F)NC(=O)[C@@H](CCC#N)OC(=O)[C@H](C)N(C)C1=O [C-41] (cyclo(L[NMeA][Butanoyl(2R-oxy,4-CN)][Abu(4,4,4-F3)][NMeL]L[NMeTrp(1-(4-Br-benzyl))]))	–	–	–	73	–	832	32	–	23	1010	77	1280	19	–
CC(C)C[C@@H]1NC(=O)[C@H](Cc2cn(-c3ccccc3)c3ccccc23)N(C)C(=O)[C@H](CC(C)C)NC(=O)[C@H](CC(C)C)N(C)C(=O)[C@H](CC(F)(F)F)NC(=O)[C@@H](CCC#N)OC(=O)[C@H](C)N(C)C1=O [C-51] (cyclo(L[NMeA][Butanoyl(2R-oxy,4-CN)][Abu(4,4,4-F3)][NMeL]L[X17]))	–	836	6200	1070	133	3440	72	–	–	–	–	–	–	–
CCCC[C@@H]1NC(=O)[C@@H](CCC#N)OC(=O)[C@H](C)N(C)C(=O)[C@H](CC(C)C)NC(=O)[C@H](Cc2cn(Cc3ccc(C(F)(F)F)cc3)c3ccccc23)N(C)C(=O)[C@H](CC(C)C)NC(=O)[C@H](CC(C)C)N(C)C1=O [C-46] (HELM PEPTIDE1{L.[meA].[N#CCC[C@@H](O[*:1])C(=O)[*:2]].[Nle].[meL].L.[CN([C@@H](Cc1cn(Cc2ccc(C(F)(F)F)cc2)c2ccccc12)C(=O)[*:2])[*:1]]}$PEPTIDE1,PEPTIDE1,1:R1-7:R2$$$V2.0)	–	296	3070	640	35	3120	141	15000	–	–	–	–	–	–
CC(C)C[C@@H]1NC(=O)[C@H](Cc2cn(Cc3ccc(F)nc3)c3ccccc23)N(C)C(=O)[C@H](CC(C)C)NC(=O)[C@H](CC(C)C)N(C)C(=O)[C@H](CC(C)C)NC(=O)[C@@H](CCC#N)OC(=O)[C@H](C)N(C)C1=O [C-36] (HELM PEPTIDE1{L.[meA].[N#CCC[C@@H](O[*:1])C(=O)[*:2]].L.[meL].L.[CN([C@@H](Cc1cn(Cc2ccc(F)nc2)c2ccccc12)C(=O)[*:2])[*:1]]}$PEPTIDE1,PEPTIDE1,1:R1-7:R2$$$V2.0)	345	358	2870	289	94	1540	351	1090	–	–	–	–	–	–
CC(C)C[C@@H]1NC(=O)[C@H](Cc2cn(Cc3ccc(Br)cc3)c3ccccc23)N(C)C(=O)[C@H](CC(C)C)NC(=O)[C@H](CC(C)C)N(C)C(=O)[C@H](CC(C)(C)C)NC(=O)[C@@H](CCC#N)OC(=O)[C@H](C)N(C)C1=O [C-39] (cyclo(L[NMeA][Butanoyl(2R-oxy,4-CN)][tBuAla][NMeL]L[NMeTrp(1-(4-Br-benzyl))]))	330	265	3110	621	67	3570	301	3290	–	–	–	–	–	–
CC(C)C[C@@H]1NC(=O)[C@H](Cc2ccccc2)N(C)C(=O)[C@H](CC(C)C)NC(=O)[C@H](CC(C)C)N(C)C(=O)[C@H](CC(C)C)NC(=O)[C@@H](CCC#N)OC(=O)[C@H](C)N(C)C1=O [C-37] (HELM PEPTIDE1{L.[meA].[N#CCC[C@@H](O[*:1])C(=O)[*:2]].L.[meL].L.[meF]}$PEPTIDE1,PEPTIDE1,1:R1-7:R2$$$V2.0)	267	1020	6290	8810	582	6360	–	18500	–	–	–	–	–	20900
CC(C)C[C@@H]1NC(=O)[C@@H](CCC#N)OC(=O)[C@H](C)N(C)C(=O)[C@H](CCC(F)(F)F)NC(=O)[C@H](Cc2csc3ccccc23)N(C)C(=O)[C@H](CC(C)C)NC(=O)[C@H](CC(C)C)N(C)C1=O [C-50] (cyclo(L[NMeBta][Nva(5,5,5-F3)][NMeA][Butanoyl(2R-oxy,4-CN)]L[NMeL]))	–	644	4540	1080	201	2450	30	9060	–	–	–	–	–	–
COc1ccc(Cn2cc(C[C@H]3C(=O)N[C@@H](CC(C)C)C(=O)N(C)[C@@H](C)C(=O)O[C@H](CCC#N)C(=O)N[C@@H](CC(C)C)C(=O)N(C)[C@@H](CC(C)C)C(=O)N[C@@H](CC(C)C)C(=O)N3C)c3ccccc32)cc1 [C-31] (HELM PEPTIDE1{L.[meA].[N#CCC[C@@H](O[*:1])C(=O)[*:2]].L.[meL].L.[COc1ccc(Cn2cc(C[C@@H](C(=O)[*:2])N(C)[*:1])c3ccccc32)cc1]}$PEPTIDE1,PEPTIDE1,1:R1-7:R2$$$V2.0)	264	4060	–	2060	380	5890	–	–	–	–	–	–	–	–
CC(C)C[C@@H]1NC(=O)[C@H](Cc2cn(Cc3cccc(OC(F)(F)F)c3)c3ccccc23)N(C)C(=O)[C@H](CC(C)C)NC(=O)[C@H](CC(C)C)N(C)C(=O)[C@H](CC(C)C)NC(=O)[C@@H](CCC#N)OC(=O)[C@H](C)N(C)C1=O [C-75] (HELM PEPTIDE1{L.[meA].[N#CCC[C@@H](O[*:1])C(=O)[*:2]].L.[meL].L.[CN([C@@H](Cc1cn(Cc2cccc(OC(F)(F)F)c2)c2ccccc12)C(=O)[*:2])[*:1]]}$PEPTIDE1,PEPTIDE1,1:R1-7:R2$$$V2.0)	857	–	–	920	–	8220	–	–	–	–	–	–	–	–

From US11339193B2, “CDP protein secretion inhibitors” (KEZAR LIFE SCIENCES, priority 2018, dated 2022)
